Measurements published in the NIST ThermoML archive (doi:10.1021/je800046k).

Experiments:
[1] = for surface tension liquid-gas: Pendant drop shape; for mass density: 101 kPa, Liquid
[2] = xn = mol fraction of the nth substance listed; settings: for surface tension liquid-gas: Pendant drop shape; for mass density: 101 kPa, Liquid

Cc1ccc(C)c(C)c1 [1,2,4-trimethylbenzene]
[1]
Settings	mass density [kg/m3]	surface tension liquid-gas [mN/m]
298.15 K	871.71	29.3
308.15 K	863.68	28.24
313.15 K	859.58	27.71

Cc1ccc(C)c(C)c1 [1,2,4-trimethylbenzene] + CC(=O)OCC(C)C
[2], x2 = 0
Settings	mass density [kg/m3]	surface tension liquid-gas [mN/m]
298.15 K	871.71	29.3
308.15 K	863.68	28.24
313.15 K	859.58	27.71

Cc1cc(C)cc(C)c1 [1,3,5-trimethylbenzene]
[1]
Settings	mass density [kg/m3]	surface tension liquid-gas [mN/m]
298.15 K	861.12	28.05
308.15 K	852.94	27.21
313.15 K	848.82	26.78

Cc1cc(C)cc(C)c1 [1,3,5-trimethylbenzene] + CC(=O)OCC(C)C
[2], x2 = 0
Settings	mass density [kg/m3]	surface tension liquid-gas [mN/m]
298.15 K	861.12	28.05
308.15 K	852.94	27.21
313.15 K	848.82	26.78

CC(=O)OC(C)C [1-methylethyl ethanoate]
[1]
Settings	mass density [kg/m3]	surface tension liquid-gas [mN/m]
298.15 K	866.25	21.89
308.15 K	854.54	20.81
313.15 K	848.61	20.29

CC(=O)OC(C)C [1-methylethyl ethanoate] + Cc1cc(C)cc(C)c1
[2], x1 = 1
Settings	mass density [kg/m3]	surface tension liquid-gas [mN/m]
298.15 K	866.25	21.89
308.15 K	854.54	20.81
313.15 K	848.61	20.29

CC(=O)OC(C)C [1-methylethyl ethanoate] + Cc1ccc(C)c(C)c1
[2], x1 = 1
Settings	mass density [kg/m3]	surface tension liquid-gas [mN/m]
298.15 K	866.25	21.89
308.15 K	854.54	20.81
313.15 K	848.61	20.29

CC(=O)OCC(C)C [2-methylpropyl ethanoate]
[1]
Settings	mass density [kg/m3]	surface tension liquid-gas [mN/m]
298.15 K	866.06	23.15
308.15 K	855.51	22.16
313.15 K	850.16	21.64
